According to patent publication US20250367099A1, “UROLITHIN COMBINATIONS” (priority 2024, published 2025):

Experiments:
C2C12 myotubes = test: Fatty acid oxidation / mitochondrial respiration analysis on C2C12 myotubes (Seahorse XF96); format: cell-based, Mouse; details: UA 50 uM, Astaxanthin 20 uM; for induced mitochondrial respiration / Relative Change (%) Compared to DMSO 0.1%: C2C12 myotubes; for induced mitochondrial respiration: 24 hours treatment, vs DMSO; for % increase in maximal mitochondrial respiration: Table 3: change in maximal mitochondrial respiration vs DMSO, 24 hours; for Relative Change (%) Compared to DMSO 0.1%: Table 4
Procedure: Fatty acid oxidation analysis on C2C12 myotubes was measured with a Seahorse XF96 extracellular flux analyzer. […] were seeded at 8,000 cells/well in an XF96 cell culture microplate. Once cells reached confluence, they were differentiated with DMEM (Gibco, 31966047) supplemented with 2% Horse serum, 1% PenStrep and 1% Hepes for 5 days. Cells were treated with UA 50 uM (Amazentis) and Astaxanthin 20 uM (MedChemExpress, LKT-A7476) for 24 hours in substrate-limited media (Gibco, A1443001) supplemented with 0.5 mM glucose, 1 mM glutamine, 1% Oleic acid and 0.5 mM L-Carnitine. Maximal respiration was monitored by injection of 3 µM FCCP in the cartridge. Prior to the assay, cells were incubated in a Fatty acid oxidation medium (111 mM NaCl, 4.7 mM KCl, 1.25 mM CaCI2, 2 mM MgSO4, 1.2 mM NaH2PO4, 5 mM L-Carnitine, 5 mM Hepes, 2.5 mM Glucose) for 20 min, solution must be adjusted to pH 7.4 at 37° C. Mouse muscle C2C12 myotubes were treated for 24 hours with either Urolithin A alone, Astaxanthin alone or a combination of both compounds. Urolithin A alone induced mitochondrial respiration (+8.5%, Table 4). Astaxanthin alone induced mitochondrial respiration (+3.2% Table.4).

interleukin 6 (IL-6) = test: Cytokine mix (CTX)-induced IL-6 release in normal human dermal fibroblasts (ELISA); format: cell-based; details: Zinc 100 uM; for Relative Change (%) Compared to CTX: Table 5, IL-6, nHDF; for Relative Change (%) Compared to CTX / reduction of CTX-mediated increase of IL-6: CTX 0.025 ng/ml; for Relative Change (%) Compared to CTX / % reduction IL-6: UA 2.5 uM; for % reduction IL-6: Table 6, IL-6 concentration in cell supernatant, CTX vs CTX + treatment; for reduction of CTX-mediated increase of IL-6: nHDF, urolithin A 2.5 uM, 24 h pre-treatment + 24 h co-treatment
Procedure: The protective effects of urolithin A and Zinc against inflammation induced by a cytokines mix (Cytomix, CTX) in human dermal fibroblasts (nHDF cells) were investigated. A dose of 0.025 ng/ml of Cytokines mix was applied to induce inflammation, measured by quantifying the levels of the pro-inflammatory cytokine interleukin 6 (IL-6) in the cell culture supernatant. For the experiment, cells were first pre-treated with either i) urolithin A 2.5 uM, ii) Zinc at 100 uM, iii) a combination of urolithin A 2.5 uM and Zinc 100 uM, iv) or DMSO as control for 24 h. Then cells were co-treated with both CTX and either urolithin A or Zinc alone or in combination, as above. After 24h, IL-6 was measured in the cell supernatant to assess the ability of Urolithin A and Zinc to reduce Cytokines-induced inflammation.
Normal Human dermal fibroblasts (nHDF) purchased from Promocell (ref. C-12302) were seeded at 6000 cells per well in a 96 well plate (Greiner) using a DMEM Glutamax 1 g D-glucose (Gibco, ref 21885108) supplemented with FBS 10% (PanBiotech, ref P30-3033), 1% PenStrep (Biowest) and 1% Hepes (Biowest). All media were sterilized with a 0.45 μm filter unit (VWR). The day after the seeded cells were treated for 24 h with 1) Urolithin A (UA) resuspended in DMSO, Zinc gluconate (MedChemExpress Ref. HY-W145499) or a combination of the two at the indicated doses. Cytokine mix (“cytomix”) was added in addition of the previous treatment for another 24h, cytokines were used equally for a total and final concentration of 0.025 ng/ml (mIFN-g (roche ref.11276905001), TNF-α (Peprotech ref. 300-01A) and IL-b (Proteintech ref. 200-01B)). The medium was collected and an ELISA for Interleukin-6 were performed following the instruction provided by the supplier (Proteintech ref. KE10007). Finally, the absorbance at a wavelength of 450 nm was measured using a microplate plate reader (Fluostar Optima, BMG Labtech). IL-6 data were finally normalized over cell number, calculated with a cell viability assay (Promega, ref. G7571).

Compound | induced mitochondrial respiration (C2C12 myotubes) | % increase in maximal mitochondrial respiration (C2C12 myotubes) | Relative Change (%) Compared to DMSO 0.1% (C2C12 myotubes) [%] | Relative Change (%) Compared to CTX (interleukin 6 (IL-6)) [%] | % reduction IL-6 (interleukin 6 (IL-6)) [%] | reduction of CTX-mediated increase of IL-6 (interleukin 6 (IL-6)) [%]
CC1=C(/C=C/C(C)=C/C=C/C(C)=C/C=C/C=C(C)/C=C/C=C(C)/C=C/C2=C(C)C(=O)[C@@H](O)CC2(C)C)C(C)(C)C[C@H](O)C1=O [Astaxanthin] | +3.2% | +3.3% | 2.6 | – | – | –
O=c1oc2cc(O)ccc2c2ccc(O)cc12 [Urolithin A] | +8.5% | +8.5% | 8.4 | −25.05 | 25 | 25
Zinc gluconate | – | – | – | −29.57 | −29.6 | 29.6
